Results taken from patent EP0761679A1, “N-Butylsulfonate esters of estrogens” (ELI LILLY AND COMPANY, priority 1995, dated 1997).

test system: ovariectomized rat; assay: ovariectomized (ovex) rat model, uterine wet weight after four days of oral treatment; type: in vivo, Sprague Dawley rats; details: 96 h, 0.1 mg/kg P.O. (gavage in 0.5 mL of 1% carboxymethylcellulose suspension), ovariectomized female rats, read-out: Uterine weight as percent control @ 0.1 mg/kg P.O.
Description: Seventy-five day old female Sprague Dawley rats (weight range of 225-275 g) were obtained from Charles River Laboratories (Portage, MI). The animals were either bilaterally ovariectomized or exposed to a sham surgical procedure at Charles River Laboratories, and then shipped after one week. They were housed in groups of three and had ad libitum access to food and water. Room temperature was maintained at 22.2° C with 40% relative humidity. The photo-period was 12 hours of light and 12 hours of darkness. One week after arrival (thus, 14 days post-ovariectomy), the rats were treated with vehicle, 17-α-ethinyl estradiol, parent hydroxy estrogens, or a compound of formula I was initiated. After four days of treatment, blood was collected by cardiac puncture, the animals were sacrificed by carbon dioxide asphyxiation and the uteri were removed and wet weight determined. […] All compounds were given by oral dosage (gavage in 0.5 mL of 1% carboxymethylcellulose suspension). For comparison purposes, the data represented are for 0.1 mg/kg for all compounds. The positive control was 0.1 mg/kg of 17-α-ethinyl estradiol, a known, orally available estrogen.

With `C[C@]12CC[C@@H]3c4ccc(O)cc4CC[C@H]3[C@@H]1CC[C@@H]2O` [17-β-estradiol] as the compound, how does the response vs control in vivo at 0.1 mg/kg read?
Its response vs control in vivo at 0.1 mg/kg is 43%.

With `C[C@]12CC[C@@H]3c4ccc(O)cc4CC[C@H]3[C@@H]1CCC2=O` [Estrone] as the compound, how does the response vs control in vivo at 0.1 mg/kg read?
Its response vs control in vivo at 0.1 mg/kg is 35%.

`C[C@]12CC[C@H]3C(=CCc4cc(O)ccc43)[C@@H]1CCC2=O` [Equilin] was tested. Which response vs control in vivo at 0.1 mg/kg did it give?
Its response vs control in vivo at 0.1 mg/kg is 47%.

How did the response vs control in vivo at 0.1 mg/kg turn out when `C[C@]12CC[C@@H]3c4ccc(OS(C)(=O)=O)cc4CC[C@H]3[C@@H]1CC[C@@H]2O` [3-methanesulfonoyl-17-β-estradiol] was run?
The response vs control in vivo at 0.1 mg/kg was 17%.

With `C[C@]12CC[C@@H]3c4ccc(OS(=O)(=O)c5ccccc5)cc4CC[C@H]3[C@@H]1CCC2=O` [3-phenylsulfonoyl estrone] as the compound, how does the response vs control in vivo at 0.1 mg/kg read?
The response vs control in vivo at 0.1 mg/kg was 10%.

With `CCCCS(=O)(=O)Oc1ccc2c(c1)CC=C1[C@@H]2CC[C@]2(C)C(=O)CC[C@@H]12` [3-n-butylsulfonoyl equilin] as the compound, how does the response vs control in vivo at 0.1 mg/kg read?
The response vs control in vivo at 0.1 mg/kg was 119%.

How did the response vs control in vivo at 0.1 mg/kg turn out when `CCCCS(=O)(=O)Oc1ccc2c(c1)CC[C@@H]1[C@@H]2CC[C@]2(C)C(=O)CC[C@@H]12` [3-n-butylsulfonyl estrone, 3-n-butylsulfonoyl estrone] was run?
The response vs control in vivo at 0.1 mg/kg was 67%.

With `CCCCS(=O)(=O)Oc1ccc2c(c1)CC[C@@H]1[C@@H]2CC[C@]2(C)[C@@H](OS(=O)(=O)CCCC)CC[C@@H]12` [3,17-β-di-n-butylsulfonoyl estradiol] as the compound, how does the response vs control in vivo at 0.1 mg/kg read?
The response vs control in vivo at 0.1 mg/kg was 112%.

`C[C@]12CC[C@@H]3c4ccc(OS(C)(=O)=O)cc4CC[C@H]3[C@@H]1CC[C@@H]2OS(C)(=O)=O` [3,17-β-di-methanesulfonoyl estradiol] was tested. Which response vs control in vivo at 0.1 mg/kg did it give?
Its response vs control in vivo at 0.1 mg/kg is 0%.

`C[C@]12CC[C@@H]3c4ccc(OS(C)(=O)=O)cc4CC[C@H]3[C@@H]1CCC2=O` [3-methanesulfonoyl estrone] was tested. Which response vs control in vivo at 0.1 mg/kg did it give?
Its response vs control in vivo at 0.1 mg/kg is 0%.

For `C[C@]12CC[C@@H]3c4ccc(OS(=O)(=O)c5ccccc5)cc4CC[C@H]3[C@@H]1CC[C@@H]2O` [3-phenylsulfonoyl-17-β-estradiol], which response vs control in vivo at 0.1 mg/kg is on record?
Its response vs control in vivo at 0.1 mg/kg is 0%.
